Each structure is given as a SMILES string. Several values for one entry are separate records, joined by “and”; a condition that tells them apart may be missing. Identical values can stand only once.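 How tested: cells in 96-well plates exposed to compound for 48 hours at five concentrations. At the GI50, growth is halved. TGI is the concentration that stops growth completely.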 A value given as a limit tells only on which side of the number the result lay.

Holding throughout (experiment): DTP human tumour cell line panel, 48 h
Experiment [1] deals with HS 578T breast.
Experiment [2] relates to MDA-MB-435.
For experiment [3], the system named is BT-549 breast.
Experiment [4] relates to MDA-MB-231 breast.
Experiment [5] concerns DU-145 prostate.
Experiment [6] has as its system T-47D breast.

On to `O=C(NC(=S)Nc1ccc(-c2nc3ccccc3[nH]2)cc1)c1ccc2ccccc2c1`, for which the GI50 in experiment [1] was 3090 nM; in experiment [2] it was 4.27 µM; in experiment [3], 2200 nM; in experiment [4] it was 2.46 µM; in experiment [5], 3.9 µM. Further, the concentration for total growth inhibition (TGI) in experiment [1] is 9.94 µM; in experiment [2], more than 100 µM; in experiment [3], 6.73 µM; in experiment [4] it was 7.15 µM; in experiment [5], more than 100 µM.
Take `O=C(/C=C/c1cccnc1)c1ccccc1`: the GI50 is 12.4 µM in experiment [6]; 10500 nM in experiment [1]; 12.4 µM in experiment [2]; 16000 nM in experiment [3]; 12.9 µM in experiment [4]; 13.9 µM in experiment [5]. The TGI in experiment [6] was found to be 28.6 µM; in experiment [1], 32.7 µM; in experiment [2], 26.7 µM; in experiment [3] it was 29.9 µM; in experiment [4], 28.3 µM; in experiment [5], 26.9 µM.
With `CC[n+]1c(/C=C/c2ccc(N3CCCC3)cc2)cccc1/C=C/c1ccc(N2CCCC2)cc1`, the GI50 in experiment [6] is 0.0332 µM; in experiment [1] it was 273 nM; in experiment [2], 0.343 µM; in experiment [3] it was 103 nM; in experiment [4], 0.264 µM and 0.268 µM; in experiment [5] it was 0.312 µM and 0.24 µM. The TGI is 0.931 µM in experiment [6]; 1.46 µM in experiment [1]; 2.34 µM in experiment [2]; 1.76 µM in experiment [3]; 1.29 µM and 1.11 µM in experiment [4]; 1.19 µM and 1.22 µM in experiment [5].
Take `Nc1n[nH]c2ccc([C@H]3[C@@H]4C5CCC(C5)[C@@H]4c4c(ccc5[nH]ncc45)N3S(=O)(=O)C3CC3)cc12` (some centres undefined): the 50% growth inhibitory concentration (GI50) in experiment [1] was 170 nM; in experiment [2], 0.141 µM; in experiment [3] it was 340 nM; in experiment [4], 0.322 µM; in experiment [5] it was 0.212 µM. The concentration for total growth inhibition (TGI) in experiment [1] came to 3.31 µM; in experiment [2], 1.35 µM; in experiment [3], 5.73 µM; in experiment [4], 12.4 µM; in experiment [5], 26.7 µM.
On to `COc1ccc2c(c1)OC(N)=C(C#N)C2c1ccc(F)c(F)c1` (centres undefined), for which the GI50 in experiment [6] is 0.334 µM; in experiment [1], 426 nM; in experiment [2], 0.133 µM; in experiment [3], 598 nM; in experiment [4], 1.33 µM; in experiment [5] it was 0.522 µM. The TGI was more than 55.3 µM in experiment [6]; more than 46.3 µM in experiment [1]; 0.664 µM in experiment [2]; 65.6 µM in experiment [3]; 62.1 µM in experiment [4]; more than 46.5 µM in experiment [5].
As to `CCCC(c1cc(C(C)(C)C)c(O)cc1C)c1cc(C(C)(C)C)c(O)cc1C`, the TGI is 8.92 µM in experiment [6]; 9.79 µM in experiment [1]; 7.18 µM in experiment [2]; 22.7 µM in experiment [3]; 9.57 µM in experiment [4]; 14.7 µM in experiment [5].
As to `Nc1ncnc2occ(-c3ccc(NC(=O)Nc4cc(C(F)(F)F)ccc4F)cc3)c12`, the GI50 was 6.42 µM and 3.5 µM in experiment [6]; 773 nM and 2090 nM in experiment [1]; 4.35 µM and 2.37 µM in experiment [2]; 6830 nM and 3420 nM in experiment [3]; 7.93 µM and 3.8 µM in experiment [4]; 7.01 µM and 2.68 µM in experiment [5]. Also, the total growth inhibition concentration (TGI) in experiment [6] is 16.9 µM and 10.9 µM; in experiment [1] it was 9.1 µM and 9.04 µM; in experiment [2] it was 11.3 µM and 5.59 µM; in experiment [3], 17.4 µM and 9.93 µM; in experiment [4] it was 23.1 µM and 12.4 µM; in experiment [5], 21.1 µM and 9.28 µM.
Turning to `CC(=O)NS(=O)(=O)c1ccc(-n2nc(-c3ccccc3)cc2-c2cc(O)ccc2O)cc1`, the GI50 in experiment [6] is more than 100 µM; in experiment [1], more than 100000 nM; in experiment [2] it was more than 100 µM; in experiment [3] it was more than 100000 nM; in experiment [4] it was 39.2 µM. The TGI in experiment [6], in experiment [1], in experiment [2], in experiment [3] and in experiment [4] was more than 100 µM throughout.
In the case of `CSc1nc(SC)c2cnn(-c3ccnc4cc(Cl)ccc34)c2n1`, the GI50 is more than 100 µM in experiment [6]; 23300 nM in experiment [1]; 10.7 µM in experiment [2]; 43300 nM in experiment [3]; 20 µM in experiment [4]; 42.6 µM in experiment [5]. Moreover, the TGI was more than 100 µM in experiment [6]; more than 100 µM in experiment [1]; more than 100 µM in experiment [2]; more than 87.7 µM in experiment [3]; 67.4 µM in experiment [4]; more than 67 µM in experiment [5].
With `COc1cc2cc(Oc3ccc(NC(=O)Nc4ccc(F)c(C(F)(F)F)c4)cc3)c(C)nc2cc1OCCN1CCOCC1`, the GI50 in experiment [6] was 1.91 µM; in experiment [1], 2120 nM; in experiment [2], 1.91 µM; in experiment [3], 2440 nM; in experiment [4], 2.83 µM; in experiment [5], 3.5 µM. The TGI was found to be 32.1 µM in experiment [6]; 8.9 µM in experiment [1]; 3.9 µM in experiment [2]; 8.46 µM in experiment [3]; 9.02 µM in experiment [4]; 15.2 µM in experiment [5].
As for `Cc1cc(C)c2c(=O)cc(-c3ccc(F)cc3)[nH]c2n1`, the TGI in experiment [6] was more than 100 µM; in experiment [1], more than 100 µM; in experiment [2], 40.6 µM; in experiment [3], more than 100 µM; in experiment [4] it was more than 100 µM; in experiment [5], more than 100 µM. In addition, the GI50 in experiment [2] was 18.6 µM.
`CCOC(=O)c1c2c(n(Cc3ccccc3)c1C)-c1nc[nH]c1C(=O)C2=O`: the GI50 is 11.4 µM in experiment [6]; 29300 nM in experiment [1]; 16.9 µM in experiment [2]; 17000 nM in experiment [3]; 13.1 µM in experiment [4]; 9.83 µM in experiment [5]. Besides, the TGI in experiment [6] stood at 30.7 µM; in experiment [1], 88.1 µM; in experiment [2], 31.3 µM; in experiment [3], 31.1 µM; in experiment [4], 28.3 µM; in experiment [5], 21.5 µM.
As for `O=C1NC(=N[C@@H]2C[C@H]2c2ccccc2)S/C1=C\c1ccc2ncccc2c1`, the GI50 was 1.81 µM in experiment [6]; 1250 nM in experiment [1]; 0.688 µM in experiment [2]; 1570 nM in experiment [3]; 5.02 µM in experiment [4]; 1.94 µM in experiment [5]. Also, the TGI in experiment [6] was determined as 13.8 µM; in experiment [1] it was 11.6 µM; in experiment [2], 2.85 µM; in experiment [3] it was 6.49 µM; in experiment [4], 22.4 µM; in experiment [5] it was 24.9 µM.

By GI50 is commonly meant the concentration at which growth is held to half of that of the control. In general, TGI refers to the concentration giving total growth inhibition. Read a low TGI as more potent growth arrest.

For the origin of these results see PubChem BioAssay (NCI).
